Settings: Liquid, X-ray view cell

c1ccccc1 [benzene]
Settings | vapor or sublimation pressure [kPa]
378.35 K | 205
401.25 K | 366
421.85 K | 572
437.45 K | 778
460.35 K | 1173
480.45 K | 1622
500.15 K | 2183
520.05 K | 2877
